For orientation: solubility means the dissolved amount per volume that the medium holds.

The structures appear in SMILES notation.

Test system in one series: not listed separately
Nature of the series: physchem. To be noted: 37 °C, pH 1.2, simulated gastric fluid, thermodynamic from solid, Solubility JP1 (pH 1.2), 0 hr.
For `C=CCN1CC(=O)N2[C@@H](Cc3ccc(OP(=O)([O-])[O-])cc3)C(=O)N(Cc3ccc(Cl)c4cccnc34)C[C@@H]2N1C(=O)NCc1ccccc1.[Na+].[Na+]` [Compound 7], the concentration in solution (solubility) came to 309 µg/mL.

Compound `C=CCN1CC(=O)N2[C@@H](Cc3ccc(OP(=O)([O-])[O-])cc3)C(=O)N(Cc3ccc(F)cc3F)C[C@@H]2N1C(=O)NCc1ccccc1.[Na+].[Na+]` [Compound 8] had a solubility of 671 µg/mL.

Consider `CN1CC(=O)N2[C@@H](Cc3ccc(OP(=O)([O-])[O-])cc3)C(=O)N(Cc3cccc4cccnc34)C[C@@H]2N1C(=O)NCc1ccccc1.[Na+].[Na+]` [Compound 9], for which the solubility was 2250 µg/mL.

`CN(C)c1cc(F)c(F)cc1CN1C[C@H]2N(C(=O)CN(C)N2C(=O)NCc2ccccc2)[C@@H](Cc2ccc(OP(=O)([O-])[O-])cc2)C1=O.[Na+].[Na+]` [Compound 10] returned a solubility of 2290 µg/mL.

Take `CN(C)c1cc(CN2C[C@H]3N(C(=O)CN(C)N3C(=O)NCc3ccccc3)[C@@H](Cc3ccc(OP(=O)([O-])[O-])cc3)C2=O)ccc1Cl.[Na+].[Na+]` [Compound 11]: the solubility was 2010 µg/mL.

Still in this series, the particulars now being: 37 °C, pH 1.2, simulated gastric fluid, thermodynamic from solid, Solubility JP1 (pH 1.2), 2 hr.
`C=CCN1CC(=O)N2[C@@H](Cc3ccc(OP(=O)([O-])[O-])cc3)C(=O)N(Cc3ccc(Cl)c4cccnc34)C[C@@H]2N1C(=O)NCc1ccccc1.[Na+].[Na+]` [Compound 7] showed a solubility of 446 µg/mL.

On to `C=CCN1CC(=O)N2[C@@H](Cc3ccc(OP(=O)([O-])[O-])cc3)C(=O)N(Cc3ccc(F)cc3F)C[C@@H]2N1C(=O)NCc1ccccc1.[Na+].[Na+]` [Compound 8], for which the solubility is 775 µg/mL.

For `CN1CC(=O)N2[C@@H](Cc3ccc(OP(=O)([O-])[O-])cc3)C(=O)N(Cc3cccc4cccnc34)C[C@@H]2N1C(=O)NCc1ccccc1.[Na+].[Na+]` [Compound 9], the solubility was 2280 µg/mL.

Compound `CN(C)c1cc(F)c(F)cc1CN1C[C@H]2N(C(=O)CN(C)N2C(=O)NCc2ccccc2)[C@@H](Cc2ccc(OP(=O)([O-])[O-])cc2)C1=O.[Na+].[Na+]` [Compound 10] came in with a solubility of 2270 µg/mL.

In the case of `CN(C)c1cc(CN2C[C@H]3N(C(=O)CN(C)N3C(=O)NCc3ccccc3)[C@@H](Cc3ccc(OP(=O)([O-])[O-])cc3)C2=O)ccc1Cl.[Na+].[Na+]` [Compound 11], the solubility was 2000 µg/mL.

The series is the same for the next values; noted with them: 37 °C, pH 1.2, simulated gastric fluid, thermodynamic from solid, Solubility JP1 (pH 1.2), 20 hr.
Turning to `C=CCN1CC(=O)N2[C@@H](Cc3ccc(OP(=O)([O-])[O-])cc3)C(=O)N(Cc3ccc(Cl)c4cccnc34)C[C@@H]2N1C(=O)NCc1ccccc1.[Na+].[Na+]` [Compound 7], the concentration in solution (solubility) came to 521 µg/mL.

`C=CCN1CC(=O)N2[C@@H](Cc3ccc(OP(=O)([O-])[O-])cc3)C(=O)N(Cc3ccc(F)cc3F)C[C@@H]2N1C(=O)NCc1ccccc1.[Na+].[Na+]` [Compound 8] returned a solubility of 921 µg/mL.

Compound `CN1CC(=O)N2[C@@H](Cc3ccc(OP(=O)([O-])[O-])cc3)C(=O)N(Cc3cccc4cccnc34)C[C@@H]2N1C(=O)NCc1ccccc1.[Na+].[Na+]` [Compound 9] showed a solubility of 2400 µg/mL.

For `CN(C)c1cc(F)c(F)cc1CN1C[C@H]2N(C(=O)CN(C)N2C(=O)NCc2ccccc2)[C@@H](Cc2ccc(OP(=O)([O-])[O-])cc2)C1=O.[Na+].[Na+]` [Compound 10], the solubility was 2330 µg/mL.

On to `CN(C)c1cc(CN2C[C@H]3N(C(=O)CN(C)N3C(=O)NCc3ccccc3)[C@@H](Cc3ccc(OP(=O)([O-])[O-])cc3)C2=O)ccc1Cl.[Na+].[Na+]` [Compound 11], for which the solubility was 2000 µg/mL.

The series is the same for the next values; noted with them: 37 °C, pH 6.8, fassgf or other biorelevant, thermodynamic from solid, Solubility JP2 (pH 6.8), 0 hr.
Compound `C=CCN1CC(=O)N2[C@@H](Cc3ccc(OP(=O)([O-])[O-])cc3)C(=O)N(Cc3ccc(Cl)c4cccnc34)C[C@@H]2N1C(=O)NCc1ccccc1.[Na+].[Na+]` [Compound 7] displayed a solubility of 2140 µg/mL.

Turning to `C=CCN1CC(=O)N2[C@@H](Cc3ccc(OP(=O)([O-])[O-])cc3)C(=O)N(Cc3ccc(F)cc3F)C[C@@H]2N1C(=O)NCc1ccccc1.[Na+].[Na+]` [Compound 8], the concentration in solution (solubility) was 2300 µg/mL.

The compound `CN1CC(=O)N2[C@@H](Cc3ccc(OP(=O)([O-])[O-])cc3)C(=O)N(Cc3cccc4cccnc34)C[C@@H]2N1C(=O)NCc1ccccc1.[Na+].[Na+]` [Compound 9] registered a solubility of 2320 µg/mL.

In the case of `CN(C)c1cc(F)c(F)cc1CN1C[C@H]2N(C(=O)CN(C)N2C(=O)NCc2ccccc2)[C@@H](Cc2ccc(OP(=O)([O-])[O-])cc2)C1=O.[Na+].[Na+]` [Compound 10], the concentration in solution (solubility) was 2030 µg/mL.

Consider `CN(C)c1cc(CN2C[C@H]3N(C(=O)CN(C)N3C(=O)NCc3ccccc3)[C@@H](Cc3ccc(OP(=O)([O-])[O-])cc3)C2=O)ccc1Cl.[Na+].[Na+]` [Compound 11], for which the solubility was determined as 1640 µg/mL.

Staying with this series, now noted: 37 °C, pH 6.8, fassgf or other biorelevant, thermodynamic from solid, Solubility JP2 (pH 6.8), 2 hr.
As for `C=CCN1CC(=O)N2[C@@H](Cc3ccc(OP(=O)([O-])[O-])cc3)C(=O)N(Cc3ccc(Cl)c4cccnc34)C[C@@H]2N1C(=O)NCc1ccccc1.[Na+].[Na+]` [Compound 7], the concentration in solution (solubility) was 2220 µg/mL.

`C=CCN1CC(=O)N2[C@@H](Cc3ccc(OP(=O)([O-])[O-])cc3)C(=O)N(Cc3ccc(F)cc3F)C[C@@H]2N1C(=O)NCc1ccccc1.[Na+].[Na+]` [Compound 8] displayed a solubility of 2320 µg/mL.

Regarding `CN1CC(=O)N2[C@@H](Cc3ccc(OP(=O)([O-])[O-])cc3)C(=O)N(Cc3cccc4cccnc34)C[C@@H]2N1C(=O)NCc1ccccc1.[Na+].[Na+]` [Compound 9], the concentration in solution (solubility) was 2350 µg/mL.

With `CN(C)c1cc(F)c(F)cc1CN1C[C@H]2N(C(=O)CN(C)N2C(=O)NCc2ccccc2)[C@@H](Cc2ccc(OP(=O)([O-])[O-])cc2)C1=O.[Na+].[Na+]` [Compound 10], the concentration in solution (solubility) was 2060 µg/mL. This solubility and that of the compound before are within 1.5-fold of each other.

As to `CN(C)c1cc(CN2C[C@H]3N(C(=O)CN(C)N3C(=O)NCc3ccccc3)[C@@H](Cc3ccc(OP(=O)([O-])[O-])cc3)C2=O)ccc1Cl.[Na+].[Na+]` [Compound 11], the concentration in solution (solubility) was 1650 µg/mL. The solubility values of the last two compounds are within 1.5-fold of each other.

The series is the same for the next values; noted with them: 37 °C, pH 6.8, fassgf or other biorelevant, thermodynamic from solid, Solubility JP2 (pH 6.8), 20 hr.
`C=CCN1CC(=O)N2[C@@H](Cc3ccc(OP(=O)([O-])[O-])cc3)C(=O)N(Cc3ccc(Cl)c4cccnc34)C[C@@H]2N1C(=O)NCc1ccccc1.[Na+].[Na+]` [Compound 7] yielded a solubility of 2240 µg/mL.

`C=CCN1CC(=O)N2[C@@H](Cc3ccc(OP(=O)([O-])[O-])cc3)C(=O)N(Cc3ccc(F)cc3F)C[C@@H]2N1C(=O)NCc1ccccc1.[Na+].[Na+]` [Compound 8] gave a solubility of 2270 µg/mL.

Compound `CN1CC(=O)N2[C@@H](Cc3ccc(OP(=O)([O-])[O-])cc3)C(=O)N(Cc3cccc4cccnc34)C[C@@H]2N1C(=O)NCc1ccccc1.[Na+].[Na+]` [Compound 9] gave a solubility of 2420 µg/mL.

For the compound `CN(C)c1cc(F)c(F)cc1CN1C[C@H]2N(C(=O)CN(C)N2C(=O)NCc2ccccc2)[C@@H](Cc2ccc(OP(=O)([O-])[O-])cc2)C1=O.[Na+].[Na+]` [Compound 10], the solubility is 2030 µg/mL.

Consider `CN(C)c1cc(CN2C[C@H]3N(C(=O)CN(C)N3C(=O)NCc3ccccc3)[C@@H](Cc3ccc(OP(=O)([O-])[O-])cc3)C2=O)ccc1Cl.[Na+].[Na+]` [Compound 11], for which the solubility came to 1650 µg/mL. This solubility and that of the compound before are within 1.5-fold of each other.

In another series the test system is min mouse. Kind of series: Min mouse model (polyp number). The format is in vivo. The settings on record: 160 ppm. How it is done: Selected compounds of the present invention (Compound B and Compound C) were evaluated in the min mouse model to evaluate their efficacy as anti-cancer agents.
The min mouse model is a widely used model to test for this type of efficacy. The numbers of polyp formed in small intestine and colon of these mice after various treatments were measured (Table 7).
In the case of `CC1=C(CC(=O)O)c2cc(F)ccc2/C1=C\c1ccc([S+](C)[O-])cc1` (stereo not shown) [Sulindac], the “Polyp Number (Mean ± S.D.) Colon” value is 0.5 ± 0.5, the “Polyp Number (Mean ± S.D.) Small Intestine” value was 48.0 ± 20.7 and the “Polyp Number (Mean ± S.D.) Total” value stood at 48.5 ± 20.9.

The series is the same for the next values; noted with them: 160 ppm, total polyp number.
`CC1=C(CC(=O)O)c2cc(F)ccc2/C1=C\c1ccc([S+](C)[O-])cc1` (stereo not shown) [Sulindac]: the “% Inhibition vs. VH” value was found to be 28%.

(Values after US7932384B2, “Reverse-turn mimetics and method relating thereto” (Choongwae Pharma Corporation, priority 2001, dated 2011).)
